The text below walks through data of ChEMBL document CHEMBL1201862, “PubChem BioAssay data set” (2004).

The test system of one test is Escherichia coli. Kind of test: microbe, parasite or virus in culture.
Test [1] concerns the target DNA (cytosine-5)-methyltransferase 1 (Homo sapiens, UniProt P26358). Description: inhibition of DNA methylation by DNMT1 – biochemical, fluorescent molecular beacon, confirmation (AID 602386). In kind it is functional.
In test [2] the target is T1, Apoptotic protease-activating factor 1 (Homo sapiens, UniProt O14727).
T1 sequence (O14727 whole entry): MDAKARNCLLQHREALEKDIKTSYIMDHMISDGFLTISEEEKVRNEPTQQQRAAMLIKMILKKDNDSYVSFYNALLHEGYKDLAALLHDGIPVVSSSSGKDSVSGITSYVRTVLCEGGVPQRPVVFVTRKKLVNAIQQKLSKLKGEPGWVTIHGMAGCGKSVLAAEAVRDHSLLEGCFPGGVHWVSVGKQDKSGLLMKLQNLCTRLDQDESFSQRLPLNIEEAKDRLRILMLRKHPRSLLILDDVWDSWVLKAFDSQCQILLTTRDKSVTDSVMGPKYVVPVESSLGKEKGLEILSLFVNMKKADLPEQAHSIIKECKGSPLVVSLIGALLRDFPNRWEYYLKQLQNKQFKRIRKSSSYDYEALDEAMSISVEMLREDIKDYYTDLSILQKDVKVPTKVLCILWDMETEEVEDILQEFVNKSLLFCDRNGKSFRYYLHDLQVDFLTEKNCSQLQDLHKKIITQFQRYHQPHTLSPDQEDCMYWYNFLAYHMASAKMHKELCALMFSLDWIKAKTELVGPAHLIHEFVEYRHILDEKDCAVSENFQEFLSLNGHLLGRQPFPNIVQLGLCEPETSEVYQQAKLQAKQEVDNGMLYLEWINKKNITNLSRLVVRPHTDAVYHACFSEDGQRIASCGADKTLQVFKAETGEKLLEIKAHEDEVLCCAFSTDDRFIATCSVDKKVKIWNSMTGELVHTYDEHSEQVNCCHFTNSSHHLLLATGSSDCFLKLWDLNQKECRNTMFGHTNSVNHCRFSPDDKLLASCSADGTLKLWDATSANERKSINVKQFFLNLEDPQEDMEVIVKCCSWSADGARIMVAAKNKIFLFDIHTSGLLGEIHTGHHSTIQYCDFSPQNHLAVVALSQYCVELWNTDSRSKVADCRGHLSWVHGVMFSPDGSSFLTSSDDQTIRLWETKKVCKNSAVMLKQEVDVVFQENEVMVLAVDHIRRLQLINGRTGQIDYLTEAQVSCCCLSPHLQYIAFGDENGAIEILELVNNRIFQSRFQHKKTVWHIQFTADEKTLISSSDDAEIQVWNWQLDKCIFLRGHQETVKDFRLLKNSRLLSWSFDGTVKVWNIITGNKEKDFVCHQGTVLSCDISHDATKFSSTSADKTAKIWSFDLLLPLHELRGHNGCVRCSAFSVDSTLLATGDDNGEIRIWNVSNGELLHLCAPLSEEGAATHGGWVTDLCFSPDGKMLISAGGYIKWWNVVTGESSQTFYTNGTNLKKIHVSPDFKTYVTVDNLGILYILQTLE
Kind of test: activation of Apaf-1 mediated apoptosis – fluorescent, uHTS hits, dose response (AID 588554). In kind it is functional.

Test [3] concerns the target T2, Small ubiquitin-related modifier 1 (Homo sapiens, UniProt P63165). Description: SUMO1 protein-protein binding blockers, potency – biochemical, FRET, dose response (AID 624383). Type of test: functional. The following applies: read-out: IC50_Mean.
The target in test [4] is T3, Carboxy-terminal domain RNA polymerase II polypeptide A small phosphatase 1 (Homo sapiens, UniProt Q9GZU7).
T3 sequence (Q9GZU7 whole entry): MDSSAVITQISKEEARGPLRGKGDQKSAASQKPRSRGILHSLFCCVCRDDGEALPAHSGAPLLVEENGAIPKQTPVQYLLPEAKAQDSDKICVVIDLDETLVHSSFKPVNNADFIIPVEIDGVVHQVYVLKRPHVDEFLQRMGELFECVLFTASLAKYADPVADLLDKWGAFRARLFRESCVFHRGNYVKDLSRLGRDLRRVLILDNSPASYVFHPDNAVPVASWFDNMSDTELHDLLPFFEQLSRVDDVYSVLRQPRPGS
Kind of test: CTDSP1 inhibitors, concentration-response, biochemical, absorbance readout, ultra-high-throughput screen actives (AID 540297). In kind it is functional.

In test [5] the target is T4, Voltage-gated N-type calcium channel alpha-1B subunit/Amyloid beta A4 precursor protein-binding family A member 1 (Homo sapiens, UniProt Q00975+Q02410). Type of test: protein assay.
T4 sequence (Q00975 whole entry): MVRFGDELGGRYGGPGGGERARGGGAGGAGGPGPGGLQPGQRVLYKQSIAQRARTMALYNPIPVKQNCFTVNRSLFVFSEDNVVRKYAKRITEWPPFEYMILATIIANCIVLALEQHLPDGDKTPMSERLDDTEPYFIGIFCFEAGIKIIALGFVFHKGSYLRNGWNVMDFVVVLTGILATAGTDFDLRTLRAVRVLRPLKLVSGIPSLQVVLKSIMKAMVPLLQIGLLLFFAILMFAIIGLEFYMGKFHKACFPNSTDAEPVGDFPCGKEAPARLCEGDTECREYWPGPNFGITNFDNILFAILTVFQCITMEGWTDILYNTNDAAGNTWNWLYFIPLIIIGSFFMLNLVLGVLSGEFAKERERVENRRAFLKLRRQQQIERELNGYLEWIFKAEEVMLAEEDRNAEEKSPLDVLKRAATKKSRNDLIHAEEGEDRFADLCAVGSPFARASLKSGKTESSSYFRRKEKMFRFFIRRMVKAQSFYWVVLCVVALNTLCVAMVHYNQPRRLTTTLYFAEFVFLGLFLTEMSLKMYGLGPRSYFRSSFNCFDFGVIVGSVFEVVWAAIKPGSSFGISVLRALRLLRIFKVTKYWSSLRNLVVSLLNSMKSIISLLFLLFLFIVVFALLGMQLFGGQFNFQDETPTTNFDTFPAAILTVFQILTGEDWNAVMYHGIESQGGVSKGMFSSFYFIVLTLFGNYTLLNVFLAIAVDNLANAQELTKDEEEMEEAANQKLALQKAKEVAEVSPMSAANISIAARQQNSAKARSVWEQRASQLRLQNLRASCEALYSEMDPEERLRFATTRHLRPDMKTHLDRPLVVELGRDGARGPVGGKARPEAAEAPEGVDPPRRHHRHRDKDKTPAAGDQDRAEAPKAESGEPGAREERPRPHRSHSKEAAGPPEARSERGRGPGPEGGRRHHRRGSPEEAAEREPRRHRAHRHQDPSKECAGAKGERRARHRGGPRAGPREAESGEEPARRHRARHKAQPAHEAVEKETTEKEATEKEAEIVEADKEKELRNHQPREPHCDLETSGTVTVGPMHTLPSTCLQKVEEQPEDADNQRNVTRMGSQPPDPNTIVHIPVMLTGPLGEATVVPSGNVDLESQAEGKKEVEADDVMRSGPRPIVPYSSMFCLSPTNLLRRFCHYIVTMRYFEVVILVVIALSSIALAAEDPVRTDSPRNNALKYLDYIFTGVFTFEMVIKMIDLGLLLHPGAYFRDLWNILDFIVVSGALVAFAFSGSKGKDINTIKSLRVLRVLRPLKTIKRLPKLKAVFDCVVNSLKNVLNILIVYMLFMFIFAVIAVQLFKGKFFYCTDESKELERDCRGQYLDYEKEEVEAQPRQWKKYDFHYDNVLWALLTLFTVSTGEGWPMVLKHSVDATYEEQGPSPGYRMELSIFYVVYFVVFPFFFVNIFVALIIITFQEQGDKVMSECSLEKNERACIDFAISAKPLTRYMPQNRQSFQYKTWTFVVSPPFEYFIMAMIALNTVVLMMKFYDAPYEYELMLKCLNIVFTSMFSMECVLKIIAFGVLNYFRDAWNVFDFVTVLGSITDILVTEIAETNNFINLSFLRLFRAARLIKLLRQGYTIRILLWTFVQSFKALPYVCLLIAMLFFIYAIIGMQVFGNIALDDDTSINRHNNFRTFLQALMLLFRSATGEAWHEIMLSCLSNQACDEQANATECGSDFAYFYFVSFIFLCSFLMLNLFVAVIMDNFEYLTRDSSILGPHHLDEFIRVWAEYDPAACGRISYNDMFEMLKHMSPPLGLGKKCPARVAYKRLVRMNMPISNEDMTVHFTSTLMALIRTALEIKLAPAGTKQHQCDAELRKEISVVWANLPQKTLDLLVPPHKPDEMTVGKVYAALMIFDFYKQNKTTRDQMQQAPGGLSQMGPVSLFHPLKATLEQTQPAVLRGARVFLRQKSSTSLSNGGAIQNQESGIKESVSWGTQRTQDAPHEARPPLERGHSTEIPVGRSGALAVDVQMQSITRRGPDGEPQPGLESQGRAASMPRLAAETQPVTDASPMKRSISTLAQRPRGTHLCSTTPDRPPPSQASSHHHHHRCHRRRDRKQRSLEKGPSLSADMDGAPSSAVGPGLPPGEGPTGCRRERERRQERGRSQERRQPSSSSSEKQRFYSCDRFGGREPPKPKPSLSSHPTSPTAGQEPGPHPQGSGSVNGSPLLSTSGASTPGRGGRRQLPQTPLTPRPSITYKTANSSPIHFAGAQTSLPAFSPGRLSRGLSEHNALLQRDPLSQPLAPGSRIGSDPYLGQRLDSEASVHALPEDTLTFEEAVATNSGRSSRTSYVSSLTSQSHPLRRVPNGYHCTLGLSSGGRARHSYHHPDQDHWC
T4 sequence (Q02410 whole entry): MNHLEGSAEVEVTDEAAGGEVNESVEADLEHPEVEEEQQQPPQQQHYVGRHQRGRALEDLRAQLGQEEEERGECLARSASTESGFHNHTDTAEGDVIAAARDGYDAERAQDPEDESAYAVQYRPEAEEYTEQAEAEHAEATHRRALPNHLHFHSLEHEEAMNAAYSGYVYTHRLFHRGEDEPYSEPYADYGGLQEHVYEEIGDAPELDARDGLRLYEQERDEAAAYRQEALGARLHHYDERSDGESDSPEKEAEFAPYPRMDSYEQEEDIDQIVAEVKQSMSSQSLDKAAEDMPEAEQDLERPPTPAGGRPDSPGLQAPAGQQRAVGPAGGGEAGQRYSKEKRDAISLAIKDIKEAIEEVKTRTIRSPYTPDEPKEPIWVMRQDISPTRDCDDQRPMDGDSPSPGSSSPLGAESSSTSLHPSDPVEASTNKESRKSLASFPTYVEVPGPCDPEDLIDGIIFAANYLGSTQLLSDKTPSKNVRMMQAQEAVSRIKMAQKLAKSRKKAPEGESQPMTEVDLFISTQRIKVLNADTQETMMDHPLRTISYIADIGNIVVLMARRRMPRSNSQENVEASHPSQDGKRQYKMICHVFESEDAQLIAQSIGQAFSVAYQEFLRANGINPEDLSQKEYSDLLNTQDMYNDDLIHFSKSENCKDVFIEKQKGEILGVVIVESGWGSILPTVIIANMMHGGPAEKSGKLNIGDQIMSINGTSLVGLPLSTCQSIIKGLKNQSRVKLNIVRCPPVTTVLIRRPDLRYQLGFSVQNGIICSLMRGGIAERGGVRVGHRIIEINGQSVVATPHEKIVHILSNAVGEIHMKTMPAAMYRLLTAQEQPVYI
In test [6] the target is T4, Voltage-gated N-type calcium channel alpha-1B subunit/Amyloid beta A4 precursor protein-binding family A member 1. Type of test: protein assay. This is another data set of the same source.
For test [7], the target named is T2, Small ubiquitin-related modifier 1. Description: SUMO1 protein interaction blockers, potency – biochemical, fluorescence polarization, uHTS hits, dose response (AID 624382). In kind it is functional. The conditions noted are these: read-out: IC50_Mean.
Test [8] has as its target Induced myeloid leukemia cell differentiation protein Mcl-1 (Homo sapiens, UniProt Q07820). In kind it is functional.
The subject of test [9] is HEK293. Description: cells. The following applies: Homo sapiens.
The target in test [10] is T5, Sentrin-specific protease 6 (Homo sapiens, UniProt Q9GZR1).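 Also: Luminescence-based dose-response confirmatory assay of SENP6 inhibition, following up an ultra-high-throughput screen.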
T5 sequence (Q9GZR1 whole entry): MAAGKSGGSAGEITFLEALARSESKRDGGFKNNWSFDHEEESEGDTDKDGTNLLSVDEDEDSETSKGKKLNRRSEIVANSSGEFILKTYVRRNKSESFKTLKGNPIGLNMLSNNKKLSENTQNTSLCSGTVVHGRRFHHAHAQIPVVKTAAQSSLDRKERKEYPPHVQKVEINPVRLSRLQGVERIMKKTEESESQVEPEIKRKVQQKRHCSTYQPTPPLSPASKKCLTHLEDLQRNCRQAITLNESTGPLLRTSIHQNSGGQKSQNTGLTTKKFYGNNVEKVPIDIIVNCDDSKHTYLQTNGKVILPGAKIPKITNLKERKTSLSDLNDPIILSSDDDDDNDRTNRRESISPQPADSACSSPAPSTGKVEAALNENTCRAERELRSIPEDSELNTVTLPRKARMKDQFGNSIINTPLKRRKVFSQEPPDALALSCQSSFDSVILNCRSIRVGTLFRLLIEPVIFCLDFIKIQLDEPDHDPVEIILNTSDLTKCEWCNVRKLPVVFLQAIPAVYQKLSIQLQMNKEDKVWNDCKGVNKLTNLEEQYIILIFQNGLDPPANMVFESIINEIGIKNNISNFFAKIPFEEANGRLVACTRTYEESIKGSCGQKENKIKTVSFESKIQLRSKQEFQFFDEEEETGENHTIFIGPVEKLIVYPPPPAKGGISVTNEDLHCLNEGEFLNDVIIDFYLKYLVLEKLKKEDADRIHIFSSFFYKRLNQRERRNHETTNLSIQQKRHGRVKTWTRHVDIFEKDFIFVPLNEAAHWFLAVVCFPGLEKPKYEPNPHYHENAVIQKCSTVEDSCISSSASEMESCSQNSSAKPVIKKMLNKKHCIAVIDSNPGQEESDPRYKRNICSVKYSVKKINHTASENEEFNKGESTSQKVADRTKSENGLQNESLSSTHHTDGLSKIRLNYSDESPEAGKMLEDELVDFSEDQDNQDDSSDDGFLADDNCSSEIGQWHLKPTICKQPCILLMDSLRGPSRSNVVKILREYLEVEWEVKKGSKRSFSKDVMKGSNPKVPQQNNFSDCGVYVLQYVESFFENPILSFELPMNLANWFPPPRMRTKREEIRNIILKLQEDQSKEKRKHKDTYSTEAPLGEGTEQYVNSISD
Type of test: functional.

Test [11] addresses T6, Sentrin-specific protease 8 (Homo sapiens, UniProt Q96LD8).
T6 sequence (Q96LD8 whole entry): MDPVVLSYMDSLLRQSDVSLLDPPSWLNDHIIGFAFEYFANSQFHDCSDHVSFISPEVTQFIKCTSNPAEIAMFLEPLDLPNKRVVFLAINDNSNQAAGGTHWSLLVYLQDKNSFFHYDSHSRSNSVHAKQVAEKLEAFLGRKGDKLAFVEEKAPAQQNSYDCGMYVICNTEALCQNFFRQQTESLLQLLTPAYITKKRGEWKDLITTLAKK
Type of test: functional.

Test [12] concerns the target T7, Sentrin-specific protease 7 (Homo sapiens, UniProt Q9BQF6).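 Also: Luminescence-based dose-response confirmation of ultra-high-throughput screening hits, measuring inhibition of SENP7.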
T7 sequence (Q9BQF6 whole entry): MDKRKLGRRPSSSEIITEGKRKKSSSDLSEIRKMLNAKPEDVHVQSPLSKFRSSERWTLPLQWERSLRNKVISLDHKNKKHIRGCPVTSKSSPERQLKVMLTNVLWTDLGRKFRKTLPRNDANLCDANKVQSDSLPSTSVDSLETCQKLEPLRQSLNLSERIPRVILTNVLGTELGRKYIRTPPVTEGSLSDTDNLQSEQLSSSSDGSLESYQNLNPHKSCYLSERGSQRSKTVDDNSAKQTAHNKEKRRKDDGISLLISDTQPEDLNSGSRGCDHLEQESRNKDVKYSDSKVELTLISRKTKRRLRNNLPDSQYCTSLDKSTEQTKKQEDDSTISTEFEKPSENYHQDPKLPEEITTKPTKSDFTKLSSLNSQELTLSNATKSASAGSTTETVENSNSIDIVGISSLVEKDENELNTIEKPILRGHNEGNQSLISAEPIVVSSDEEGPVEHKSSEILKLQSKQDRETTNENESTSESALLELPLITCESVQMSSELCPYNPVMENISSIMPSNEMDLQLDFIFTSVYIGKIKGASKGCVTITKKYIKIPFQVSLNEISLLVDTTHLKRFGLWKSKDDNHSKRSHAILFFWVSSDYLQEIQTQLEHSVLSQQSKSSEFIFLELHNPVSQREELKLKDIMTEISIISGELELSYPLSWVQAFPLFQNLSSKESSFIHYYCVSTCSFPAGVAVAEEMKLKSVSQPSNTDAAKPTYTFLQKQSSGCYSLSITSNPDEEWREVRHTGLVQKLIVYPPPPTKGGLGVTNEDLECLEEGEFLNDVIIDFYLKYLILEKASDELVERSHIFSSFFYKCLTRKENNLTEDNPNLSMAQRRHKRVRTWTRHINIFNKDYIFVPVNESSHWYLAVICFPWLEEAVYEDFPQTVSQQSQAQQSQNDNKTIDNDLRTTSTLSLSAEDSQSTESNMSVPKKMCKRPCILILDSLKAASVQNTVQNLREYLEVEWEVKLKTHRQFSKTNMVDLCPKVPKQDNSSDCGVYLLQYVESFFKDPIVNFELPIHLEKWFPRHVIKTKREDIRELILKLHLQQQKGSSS
Type of test: functional.

In test [13] the test system is HEK293. Kind of test: cells. The conditions noted are these: Homo sapiens. The source holds these as a separate data set.
The target of the next test is T8, Caspase-3 (Homo sapiens, UniProt P42574).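 Also: Dose-response selectivity test against caspase-3 for candidate inhibitors of sentrin-specific proteases (SENPs).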
T8 sequence (P42574 whole entry): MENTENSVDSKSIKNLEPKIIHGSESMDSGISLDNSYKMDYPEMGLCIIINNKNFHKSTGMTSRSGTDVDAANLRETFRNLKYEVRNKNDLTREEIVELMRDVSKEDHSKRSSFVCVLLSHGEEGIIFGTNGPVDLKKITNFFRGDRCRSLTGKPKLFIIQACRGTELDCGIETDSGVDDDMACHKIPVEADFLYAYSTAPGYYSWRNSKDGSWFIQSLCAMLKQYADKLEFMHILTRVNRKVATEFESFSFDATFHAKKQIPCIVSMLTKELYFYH
In kind it is functional.

For test [14], the target named is T9, Serine/threonine-protein phosphatase (Candida dubliniensis (strain CD36 / CBS 7987 / NCPF 3949 / NRRLY-17841) (Yeast), UniProt B9W6M3).
T9 sequence (B9W6M3 whole entry): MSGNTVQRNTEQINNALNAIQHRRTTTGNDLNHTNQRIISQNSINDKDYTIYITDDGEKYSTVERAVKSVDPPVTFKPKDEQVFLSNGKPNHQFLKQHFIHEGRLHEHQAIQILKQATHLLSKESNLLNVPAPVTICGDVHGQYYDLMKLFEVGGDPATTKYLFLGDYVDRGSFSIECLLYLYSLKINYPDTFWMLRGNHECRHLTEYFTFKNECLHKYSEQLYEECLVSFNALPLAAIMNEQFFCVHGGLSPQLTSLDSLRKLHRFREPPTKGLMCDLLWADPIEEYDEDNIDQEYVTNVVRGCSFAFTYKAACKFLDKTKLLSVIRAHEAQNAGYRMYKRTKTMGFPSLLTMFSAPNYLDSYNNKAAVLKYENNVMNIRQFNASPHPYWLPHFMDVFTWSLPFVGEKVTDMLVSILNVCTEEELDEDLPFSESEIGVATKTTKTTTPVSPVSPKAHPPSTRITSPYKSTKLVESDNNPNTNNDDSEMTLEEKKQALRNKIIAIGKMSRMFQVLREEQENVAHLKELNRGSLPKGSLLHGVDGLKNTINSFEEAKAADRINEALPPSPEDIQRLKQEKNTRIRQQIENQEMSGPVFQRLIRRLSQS
Kind of test: Fluorescence Cell-Based Secondary Assay to Identify Inhibitors of Calcineurin. [Related pubchem assays (depositor defined):AID1979, AID2007]. In kind it is functional.

The source made the active and inactive calls.

T2 sequence (P63165 whole entry, the tested form may be a part): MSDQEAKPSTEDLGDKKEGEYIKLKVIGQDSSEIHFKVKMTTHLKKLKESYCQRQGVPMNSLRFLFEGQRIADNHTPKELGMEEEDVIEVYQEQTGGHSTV
DNA (cytosine-5)-methyltransferase 1, sequence (P26358 whole entry): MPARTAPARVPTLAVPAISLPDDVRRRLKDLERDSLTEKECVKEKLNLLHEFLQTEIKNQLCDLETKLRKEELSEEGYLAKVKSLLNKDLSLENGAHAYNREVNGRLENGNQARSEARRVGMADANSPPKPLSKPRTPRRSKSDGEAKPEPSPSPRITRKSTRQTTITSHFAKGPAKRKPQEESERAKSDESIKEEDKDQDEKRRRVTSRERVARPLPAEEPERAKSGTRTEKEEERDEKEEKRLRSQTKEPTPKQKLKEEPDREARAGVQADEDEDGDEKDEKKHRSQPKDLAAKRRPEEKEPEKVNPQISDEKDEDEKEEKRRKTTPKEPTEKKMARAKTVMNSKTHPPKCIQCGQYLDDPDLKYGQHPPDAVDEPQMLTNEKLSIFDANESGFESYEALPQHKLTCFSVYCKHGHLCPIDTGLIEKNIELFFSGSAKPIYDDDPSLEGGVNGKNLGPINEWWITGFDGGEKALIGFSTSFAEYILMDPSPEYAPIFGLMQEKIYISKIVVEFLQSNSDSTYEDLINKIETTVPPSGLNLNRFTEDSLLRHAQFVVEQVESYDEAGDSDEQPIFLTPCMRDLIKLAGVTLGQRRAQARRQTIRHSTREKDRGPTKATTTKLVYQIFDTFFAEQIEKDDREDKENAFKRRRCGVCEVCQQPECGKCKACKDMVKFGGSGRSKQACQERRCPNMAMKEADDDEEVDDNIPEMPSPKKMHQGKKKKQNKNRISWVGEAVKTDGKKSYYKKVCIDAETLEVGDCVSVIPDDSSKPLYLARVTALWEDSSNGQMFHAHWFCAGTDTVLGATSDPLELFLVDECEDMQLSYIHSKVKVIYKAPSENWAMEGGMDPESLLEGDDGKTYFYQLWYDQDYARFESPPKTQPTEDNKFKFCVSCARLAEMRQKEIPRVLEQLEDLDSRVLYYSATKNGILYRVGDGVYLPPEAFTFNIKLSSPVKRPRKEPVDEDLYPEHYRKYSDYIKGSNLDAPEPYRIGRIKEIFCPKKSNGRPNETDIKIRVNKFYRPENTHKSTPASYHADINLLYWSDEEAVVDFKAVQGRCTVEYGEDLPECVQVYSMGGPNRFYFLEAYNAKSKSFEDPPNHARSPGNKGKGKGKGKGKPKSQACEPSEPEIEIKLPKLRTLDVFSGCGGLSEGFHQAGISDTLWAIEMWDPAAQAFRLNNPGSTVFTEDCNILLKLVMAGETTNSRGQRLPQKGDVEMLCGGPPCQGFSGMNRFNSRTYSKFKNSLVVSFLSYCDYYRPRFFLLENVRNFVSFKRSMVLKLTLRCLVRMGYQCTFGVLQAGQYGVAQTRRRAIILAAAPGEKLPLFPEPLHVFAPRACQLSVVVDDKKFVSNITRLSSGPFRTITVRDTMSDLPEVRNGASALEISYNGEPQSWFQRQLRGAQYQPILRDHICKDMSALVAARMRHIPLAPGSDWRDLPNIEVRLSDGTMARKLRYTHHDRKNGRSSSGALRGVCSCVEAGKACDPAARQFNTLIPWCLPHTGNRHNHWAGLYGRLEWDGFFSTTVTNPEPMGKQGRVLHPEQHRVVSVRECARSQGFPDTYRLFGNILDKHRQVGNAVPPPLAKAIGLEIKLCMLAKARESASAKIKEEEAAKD

By AC50 is commonly meant the midpoint of the concentration-response curve, whichever way the signal moves. In the case of `CCOC(=O)c1cc(C)sc1NC(=O)C(c1ccccc1)c1ccccc1`, in the test with Escherichia coli, the AC50 is 123 µM (active).

The term EC50 denotes the concentration needed to bring the measured effect to its halfway point. Consider `C=C(C)C(=O)Nc1cccc(C2=NOC3(C2)C[C@@H](C(N)=O)N(C(=O)/C(C)=C/C)C3)c1` (stereo partly specified), for which the IC50 was 1.94 µM (active) in test [1]; 0.869 µM (active) in [3]; 0.54 µM (active) in test [4]; 17.7 µM (active) in test [5]; > 50 µM (inactive) in test [6]; > 66.6 µM (inactive) in [7]. For the same compound, in [8], the IC50 is 23.6 µM (not active). Besides, the 50% effective concentration (EC50) in test [2] is 1.69 µM (active).

As for `COc1cc(C#Cc2ccc3cc(CCCO)oc(=O)c3c2)cc(OC)c1`, the EC50 with HEK293 [9] and in the test with HEK293 [13] was > 59.6 µM (inactive) throughout. Further, the IC50 was 7.16 µM (active) in [10], 10.6 µM (active) in [11], 2.81 µM (active) in [12] and 21 µM (active) at Caspase-3.

As for `Nc1nccnc1C(=O)Nc1nnc(SCc2ccc(Cl)cc2)s1`, the EC50 in test [14] is > 285 µM (inactive).
